Assay results: publication PMC6271703, “Absorbability, Mechanism and Structure-Property Relationship of Three Phenolic Acids from the Flowers of Trollius chinensis” (Molecules, 2014)
Converted amounts (≈) assume the structure as drawn.

Assays:
[1] = Caco-2 cell monolayer transport experiment; assay type: in vitro ADME; conditions: human; for Papp A→B at 90 min, 100 μmol/L: incubation up to 90 min, n = 3
Description: To facilitate the cells’ differentiation and formation of a confluent monolayer, Caco-2 cells were seeded at a density of 1.0 × 10^5 cells/cm^2 on a 12-well Transwell insert filter. The inserts were fed with culture medium at 2 days intervals in the first week, and then at daily intervals for the AP side and 2 days intervals for the BL side until they were used for the transport experiment 21 days after seeding. The AP and BL sides contained 0.5 mL and 1.5 mL of culture medium, respectively. […] The cell inserts were used after the resistance reached above 600 Ω∙cm^2.
On day 21, transport study was initiated by careful removal of the culture medium from AP and BL sides. Caco-2 monolayers were rinsed twice with pre-warmed HBSS and were incubated by pre-warmed HBSS for 30 min at 37 °C. PA, GA and TS were dissolved in DMSO, and diluted to the concentration of 25, 50 and 100 μmol/L with HBSS. The final DMSO concentration was less than 1%. Test compounds were added to the AP side (0.5 mL) or BL side (1.5 mL) of the inserts, while the receiving chamber contained the corresponding volume of HBSS. […] At 30, 60, 90, 120, 150 and 180 min, 0.2 mL of solutions from BL side or AP side were collected, and replaced with an equal volume of HBSS. Samples were frozen immediately and stored below −20 °C before analysis. Upon completion of all permeation experiments, TEER values were measured to ensure that cell monolayer integrity and viability had not been adversely affected by experimental conditions.
(§1) The cell survival rate (%) was calculated using the equation survival rate= A/A0 × 100, wherein A was the average absorbance value of treatment group; A0 was the average absorbance value of the blank control group. The Papp was determined in this study by HPLC quantification of the compounds in the receiver chamber after transport across the Caco-2 monolayer. The calculation was described by the equation Papp = (dQ/dt) × (1/A) × (1/C0), wherein dQ/dt was the rate of appearance of the test compound on the receiver compartment (μmol/s); C0 was the initial test compound concentration on the donor compartment (μmol/mL); and A was the surface area of Caco-2 monolayer (cm^2).
The percentage transported (%) was calculated using the equation % Transported = QB/(CS × VD) × 100, wherein QB was the amount of compounds in the receiver compartment(μmol); CS was the donor concentration of test compounds (μmol/L); VD was the volume of the donor compartment (L). The transport rate (μmol/h/cm^2) was calculated using the equation transport rate = QB/(t × A), wherein QB was the amount of compounds in the receiver compartment(μmol); t was the incubating time (h); A was the surface area of Caco-2 monolayer (cm^2).

[2] = tested on: Caco-2 cells; assay: MTT assay on Caco-2 cells; assay type: cell-based, human; conditions: for Survival Rate: 4 h, n = 4
Description: Caco-2 cells at logarithmic growth phase were seeded onto 96-well plates and incubated at 37 °C in culture hood. The culture medium was removed after cells formed a full layer, and each 100 μL of HBSS solution (negative control group) and drug-containing HBSS solution (three phenolic acids at the concentrations of 25, 50 and 100 μmol/L, respectively) was added to each well. When the plates were cultured for 4 h, HBSS solution was completely transferred out and each 100 μL of MTT solution (0.5 mg/mL) was added to each well. MTT solution was removed carefully after 4 hours of incubation at 37 °C, and each 150 μL of DMSO was added to each well, then culture vessels were agitated on an orbital shaker for 10 min and absorbance was read on a microplate reader at 570 nm.
as §1

[3] = Caco-2 cell monolayer transport experiment; assay type: in vitro ADME; conditions: human; for Papp A→B at 90 min, 25 μmol/L / Papp B→A at 90 min, 25 μmol/L / Papp A→B at 90 min, 50 μmol/L / Papp B→A at 90 min, 50 μmol/L / Papp B→A at 90 min, 100 μmol/L / Papp A→B at 90 min / Papp B→A at 90 min: incubation up to 90 min; for Papp A→B at 90 min, 25 μmol/L / Papp B→A at 90 min, 25 μmol/L / Papp A→B at 90 min, 50 μmol/L / Papp B→A at 90 min, 50 μmol/L / Papp B→A at 90 min, 100 μmol/L: n = 3; for Papp A→B at 90 min / Papp B→A at 90 min: average of 25, 50 and 100 μmol/L; for Papp at 90 min: monitored for 90 min, read-out: bidirectional Papp level (AP to BL and BL to AP)
[4] = tested on: influenza A; parameters: method as in ref [7] = [7]; 7. Wang R.F. The Constituents and Bioactivities of Jinlianhua and Pangdahai Doctoral Thesis Peking University Bejing, China 2003; conditions: antiviral, ref [7]; cited from earlier work
[5] = tested on: Pseudomonas aeruginosa; parameters: method as in PMID 11849843; conditions: ref [4],[5]; cited from earlier work
[6] = tested on: Staphylococcus aureus; parameters: method as in PMID 11849843; conditions: ref [4],[5]; cited from earlier work
[7] = tested on: Para 3; parameters: method as in ref [6] = [6]; 6. Li Q.F. Feng S.Q. Li Y.L. Cen Y.Z. Yang Y.T. Wang L.Y. Study on the antibacterial and antiviral activity compositions of Trollius chinensis Bunge J. Zhejiang Univ. (Sci. Ed.) 2004 31 412 415; conditions: antiviral, ref [6]; cited from earlier work
[8] = tested on: Streptococcus pneumonia; parameters: method as in ref [7] = [7]; 7. Wang R.F. The Constituents and Bioactivities of Jinlianhua and Pangdahai Doctoral Thesis Peking University Bejing, China 2003; conditions: ref [7]; cited from earlier work

SMILES	Papp A→B at 90 min, 100 μmol/L [1] [×10⁻⁶ cm/s]	Survival Rate ([2]; 25 μmol/L) [%]	Survival Rate ([2]; 50 μmol/L) [%]	Survival Rate ([2]; 100 μmol/L) [%]	Papp A→B at 90 min, 25 μmol/L [3] [×10⁻⁶ cm/s]	Papp B→A at 90 min, 25 μmol/L [3] [×10⁻⁶ cm/s]	Papp A→B at 90 min, 50 μmol/L [3] [×10⁻⁶ cm/s]	Papp B→A at 90 min, 50 μmol/L [3] [×10⁻⁶ cm/s]	Papp B→A at 90 min, 100 μmol/L [3] [×10⁻⁶ cm/s]	Papp A→B at 90 min [3] [×10⁻⁶ cm/s]	Papp B→A at 90 min [3] [×10⁻⁶ cm/s]	Papp at 90 min [3] [×10⁻⁶ cm/s]	IC50 [4] [µg/mL]	MIC [5] [µg/mL]	MIC [6] [µg/mL]	IC50 [7] [µg/mL]	Survival rate of Caco-2 cells ([2]; at different concentrations (25, 50, 100 μmol/L))	MIC [8] [µg/mL]	Papp at 180 min ([1]; standard markers added to the AP side, model validation, read-out: Papp of reference controls) [×10⁻⁶ cm/s]
COc1cc(C(=O)O)cc2c1OC(C)(C)CC2 [GA, 8-methoxy-2,2-dimethylchroman-6-carboxylic acid]	17 ± 1.2	107.1 ± 5.7	118.9 ± 13.7	123.6 ± 6.2	21.4 ± 2	22.1 ± 0.8	15.9 ± 0.2	20 ± 0.7	19.4 ± 1	18.1 ± 1.1	20.5 ± 0.8	~10	42.1 (≈ 178 µM)	–	–	–	–	–	–
COc1cc(C(=O)O)cc(CC=C(C)C)c1O [PA, 4-hydroxy-3-methoxy-5-(3-methylbut-2-en-1-yl)benzoic acid]	29.6 ± 1.1	118.8 ± 11.6	110.5 ± 3.8	124.5 ± 2.2	31.7 ± 0.4	25.4 ± 2.2	28 ± 1.3	25.6 ± 1.9	25.9 ± 1.4	29.8 ± 1.3	25.6 ± 1.8	~10	–	16 (≈ 67.7 µM)	200 (≈ 846 µM)	184.2 (≈ 780 µM)	–	–	–
CC(=O)O[C@H]1C(=O)[C@@]2(C)[C@H]([C@H](OC(=O)c3ccccc3)[C@]3(O)C[C@H](OC(=O)[C@H](O)[C@@H](NC(=O)c4ccccc4)c4ccccc4)C(C)=C1C3(C)C)[C@]1(OC(C)=O)CO[C@@H]1C[C@@H]2O [Paclitaxel, reference compound]	–	67.3 ± 8.2	45.5 ± 6.7	37.4 ± 3.5	–	–	–	–	–	–	–	–	–	–	–	–	below 70%	–	–
COc1cc(C(=O)O)cc(CC=C(C)C)c1O[C@@H]1O[C@H](CO)[C@@H](O)[C@H](O)[C@H]1O [TS, 3-methoxy-5-(3-methylbut-2-en-1-yl)-4-(((2S,3R,4S,5S,6R)-3,4,5-trihydroxy-6-(hydroxymethyl)tetrahydro-2H-pyran-2-yl)oxy)benzoic acid]	7.7 ± 0.9	98.9 ± 4.3	107.3 ± 7.0	118.2 ± 8.1	8.6 ± 1.6	8.6 ± 0.4	10.6 ± 0.3	10.8 ± 0.6	8 ± 0.3	8.9 ± 0.9	9.1 ± 0.4	~10	–	–	–	–	–	128 (≈ 321 µM)	–
CC(C)NCC(O)COc1cccc2ccccc12 (stereo not shown) [propranolol, reference compound]	–	–	–	–	–	–	–	–	–	–	–	–	–	–	–	–	–	–	12.4
